Assay [1] relates to IL-17A gene expression. The experiment in a line: Effect on IL-23-induced IL-17A gene expression in mice. The class given is in vivo. The settings on record: Balb/c mice, ear tissue 24 hr after intradermal IL-23; 100 mg/kg orally 30 min before and 8 hr after IL-23; versus the negative control group. How it is done: Effect on IL-23-Induced IL-17A Gene Expression in Mice
A mouse IL-23 solution (500 ng/10 μL, prepared by Takeda Pharmaceutical Company Limited) or PBS (10 μL, negative control group) was administered intradermally in the ear of Balb/c mice (Charles River Japan, male, 7 weeks old). Twenty-four hr after administration, the ear was resected under isoflurane anesthesia. The test compound was suspended in 0.5% methylcellulose and administered orally 30 min before and 8 hr after IL-23 administration.
RNA extraction from the ear tissue and quantitative PCR were performed as follows. Specifically, ear tissue 5 mm in diameter was punched from an area of the resected ear centering on the IL-23 injection site, and the tissue was immersed in RNAlater (QIAGEN) for at least 18 hr. The RNAlater-treated ear tissue was homogenized in 350 μL of RLT buffer (RNeasy mini kit, QIAGEN) and treated (55° C., 10 min) with Proteinase K (QIAGEN). Total RNA was then extracted according to the RNeasy mini kit protocol. The RNA thus obtained was then reverse transcribed into cDNA using the High-Capacity RNA-to-cDNA kit (Applied Biosystems), and the amount of each cytokine expressions was measured by real-time PCR (Viia7™, Applied Biosystems). The PCR buffer used was TaqMan Fast Advanced Master Mix (Applied Biosystems), and TaqMan Gene Expression Assays (Applied Biosystems) Mm00439618 m1 (IL-17A) and 4352341E (β-actin) were used for cytokine gene detection. The IL-17A gene expression level was normalized to the β-actin gene expression level, and the percent inhibition of IL-17A gene expression with the test compound was then calculated.
The results obtained with the above-described method (percent inhibition of IL-17A gene expression with oral administration of the test compound) are shown in Table 3.

The target of assay [2] is T1, RORγt (Homo sapiens, UniProt P51449).
T1 sequence (P51449 1-497 isoform P51449-2): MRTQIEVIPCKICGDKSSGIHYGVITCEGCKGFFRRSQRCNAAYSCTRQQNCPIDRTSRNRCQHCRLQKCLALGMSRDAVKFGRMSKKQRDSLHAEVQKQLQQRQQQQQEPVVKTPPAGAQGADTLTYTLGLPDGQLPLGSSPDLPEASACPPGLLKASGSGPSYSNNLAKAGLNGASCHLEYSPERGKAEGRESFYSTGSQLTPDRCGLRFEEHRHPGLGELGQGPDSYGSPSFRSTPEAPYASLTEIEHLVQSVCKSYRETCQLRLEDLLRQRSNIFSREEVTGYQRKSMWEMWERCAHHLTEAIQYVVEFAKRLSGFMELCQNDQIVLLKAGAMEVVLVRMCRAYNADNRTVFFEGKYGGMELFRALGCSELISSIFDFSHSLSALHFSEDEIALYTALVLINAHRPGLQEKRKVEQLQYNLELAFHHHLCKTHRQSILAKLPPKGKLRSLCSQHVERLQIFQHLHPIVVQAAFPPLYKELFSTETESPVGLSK
The experiment in a line: RORγt binding test (TR-FRET, fluorescent-labeled cholesterol). The settings on record: read-out: binding inhibitory rate (%) of fluorescent-labeled cholesterol to RORγt at test compound 1 μM. Summed up: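 His-tagged RORγt and BODIPY-cholesterol were incubated with compound for 20 min at room temperature in Tris-HCl pH 7.5, 100 mM NaCl, 1 mM DTT and 0.1% BSA. Terbium anti-His antibody was then added for a further 20 min.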
In general terms: Time-resolved FRET reads energy transfer from a long-lived donor to a nearby acceptor.

Assay [3] deals with T1, RORγt. The experiment in a line: Cofactor recruitment test (Alpha Screen, biotinylated SRC-1 peptide). The class given is biochemical. The conditions noted are these: read-out: signal value inhibitory rate (%) at test compound 1 μM. As to the method:
Cofactor Recruitment Test
Cofactor recruitment test was performed by Alpha Screen (Histidine Detection Kit, PerkinElmer) method. First, a test compound was diluted with an assay buffer (50 mM Tris-HCl (pH 7.5), 50 mM KCl, 1 mM DTT, 0.1% BSA) and added to a 384 well plate by 5 μL. […] The mixture was stood in a dark place for 1 hr, and the signal value was measured by Envision (PerkinElmer).

The target of assay [4] is T1, RORγt. The experiment in a line: Jurkat reporter test (human IL-17 ROR response element luciferase reporter). The conditions noted are these: read-out: luminescence level inhibitory rate (%) at test compound 3 μM. Format: cell-based. The procedure, abridged:
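Luminescence (Bright-Glo, 10 min, RT) was measured after overnight compound treatment of electroporated Jurkat cells (1350 V, 10 ms interval, 3 pulses). The reaction medium was RPMI with 10% lipid-reduced FCS, 10 mM HEPES (pH 7.5) and 5 μM lovastatin.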
(In general: A reporter such as luciferase makes a cellular process visible.)

Where [5] appears, read: test compound 3 μM, Jurkat cells.

The structures appear in SMILES notation. Read-outs that look alike come from different tables or passages of the source.

`COc1ccc([C@H](C(=O)Nc2ccc([Si](C)(C)C)cc2)N(C)C(=O)c2cc(O)no2)cc1` [Example 14, 3-hydroxy-N-((1R)-1-(4-methoxyphenyl)-2-oxo-2-((4-(trimethylsilyl)phenyl)amino)ethyl)-N-methyl-1,2-oxazole-5-carboxamide]: the “percent inhibition of IL-17A gene expression” value (from here on “percent inhibition”) in assay [1] stood at 53%.

On to `COc1ccc([C@H](C(=O)Nc2cc(F)c([Si](C)(C)C)c(F)c2)N(C)C(=O)c2cc(O)no2)cc1` [Example 23, N-((1R)-2-((3,5-difluoro-4-(trimethylsilyl)phenyl)amino)-1-(4-methoxyphenyl)-2-oxoethyl)-3-hydroxy-N-methyl-1,2-oxazole-5-carboxamide], for which the “percent inhibition” value in assay [1] worked out at 71%.

In the case of `COCc1ccc([C@@H](NC(=O)c2cc(O)no2)C(=O)Nc2cc(F)c([Si](C)(C)C)cc2F)cc1` [Example 98, N-((1R)-2-((2,5-difluoro-4-(trimethylsilyl)phenyl)amino)-1-(4-(methoxymethyl)phenyl)-2-oxoethyl)-3-hydroxy-1,2-oxazole-5-carboxamide], the inhibition at 1 µM in assay [2] is 102%; in assay [3], 95.8%. For the same molecule, in assay [4] (Jurkat), the inhibition at 3 µM was 99.2%.

Take `CC(C)(C)c1ccc(NC(=O)[C@H](NC(=O)[C@@H]2CNC(=O)C2)c2ccc3c(c2)CCO3)cc1F` [Example 111, (3S)—N-((1R)-2-((4-tert-butyl-3-fluorophenyl)amino)-1-(2,3-dihydro-1-benzofuran-5-yl)-2-oxoethyl)-5-oxopyrrolidine-3-carboxamide]: the values for the inhibition at 1 µM in assay [2] and in assay [3] were 100% and 53%, respectively. Besides, the inhibition at 3 µM in assay [4] (setting [5]) was 97.4%.

For the molecule `C[Si](C)(C)c1ccc(NC(=O)C(NC(=O)[C@@H]2CNC(=O)C2)C2CCC(F)(F)CC2)cc1F` (stereo partly drawn) [Example 5, (3S)—N-(1-(4,4-difluorocyclohexyl)-2-((3-fluoro-4-(trimethylsilyl)phenyl)amino)-2-oxoethyl)-5-oxopyrrolidine-3-carboxamide], the figures for the inhibition at 1 µM in assay [2] and in assay [3] were 100% and 84.8%, respectively. Besides, the inhibition at 3 µM in assay [4] (Jurkat) was 98%.

In the case of `COCc1ccc(C(NC(=O)Cn2cnccc2=O)C(=O)Nc2cc(F)c([Si](C)(C)C)c(F)c2)cc1` (stereo not drawn) [Example 40, N-(3,5-difluoro-4-(trimethylsilyl)phenyl)-2-(4-(methoxymethyl)phenyl)-2-(((6-oxopyrimidin-1(6H)-yl)acetyl)amino)acetamide], the inhibition at 1 µM stood at 101% in assay [2] and 98.7% in assay [3]. In addition, in assay [4] (Jurkat), the inhibition at 3 µM amounted to 100%.

Regarding `COCc1ccc([C@@H](NC(=O)[C@@H]2CNC(=O)C2)C(=O)Nc2cc(F)c([Si](C)(C)C)cc2F)cc1` [Example 51, (3S)—N-((1R)-2-((2,5-difluoro-4-(trimethylsilyl)phenyl)amino)-1-(4-(methoxymethyl)phenyl)-2-oxoethyl)-5-oxopyrrolidine-3-carboxamide], the inhibition at 1 µM in assay [2] was found to be 102%; in assay [3], 97.3%. Further, the inhibition at 3 µM in assay [4] (Jurkat) is 98%.

Regarding `COc1ccc(C(NC(=O)Cc2cnn(C)c2)C(=O)Nc2ccc([Si](C)(C)C)cc2)cc1` (stereo not drawn) [Example 20, 2-(4-methoxyphenyl)-2-(((1-methyl-1H-pyrazol-4-yl)acetyl)amino)-N-(4-(trimethylsilyl)phenyl)acetamide], the values for the inhibition at 1 µM in assay [2] and in assay [3] were 101% and 73%, respectively. Further, the inhibition at 3 µM in assay [4] (Jurkat) came out at 91.8%.

Turning to `COc1ccc(C(NC(=O)N2CC(O)C2)C(=O)Nc2cc(F)c([Si](C)(C)C)c(F)c2)cc1` (stereo not drawn) [Example 41, N-(2-((3,5-difluoro-4-(trimethylsilyl)phenyl)amino)-1-(4-methoxyphenyl)-2-oxoethyl)-3-hydroxyazetidine-1-carboxamide], the inhibition at 1 µM in assay [2] stood at 101%; in assay [3], 94.4%. In addition, the inhibition at 3 µM in assay [4] (Jurkat) was determined as 100%.

In the case of `COCc1ccc([C@@H](NC(=O)Cn2c(=O)cc[nH]c2=O)C(=O)Nc2ccc([Si](C)(C)C)c(F)c2)cc1` [Example 60, (2R)-2-(((2,6-dioxo-3,6-dihydropyrimidin-1 (2H)-yl)acetyl)amino)-N-(3-fluoro-4-(trimethylsilyl)phenyl)-2-(4-(methoxymethyl)phenyl)acetamide], the inhibition at 1 µM in assay [2] came to 102%; in assay [3], 96.6%. In assay [4] (Jurkat), the inhibition at 3 µM stood at 99.7%.

As to `COCc1ccc([C@@H](NC(=O)Cc2cc(O)no2)C(=O)Nc2ccc(C(C)(C)C)c(F)c2)cc1` [Example 106, (2R)—N-(4-tert-butyl-3-fluorophenyl)-2-(((3-hydroxy-1,2-oxazol-5-yl)acetyl)amino)-2-(4-(methoxymethyl)phenyl)acetamide], the inhibition at 1 µM was found to be 103% in assay [2] and 88% in assay [3]. Besides, the inhibition at 3 µM in assay [4] (setting [5]) came out at 99.8%. In addition, in assay [1], the “percent inhibition” value was 43%.

With `COCc1ccc([C@@H](NC(=O)CCO)C(=O)Nc2cc(F)c([Si](C)(C)C)c(F)c2)cc1` [Example 72, N-((1R)-2-((3,5-difluoro-4-(trimethylsilyl)phenyl)amino)-1-(4-(methoxymethyl)phenyl)-2-oxoethyl)-3-hydroxypropanamide], the results for the inhibition at 1 µM in assay [2] and in assay [3] were 102% and 96.7%, respectively. In addition, in assay [4] (Jurkat), the inhibition at 3 µM was 99.2%.

As for `Cn1ncc2cc(C(NC(=O)[C@@H]3CNC(=O)C3)C(=O)Nc3ccc([Si](C)(C)C)c(F)c3)ccc21` (mixture of isomers) [Example 109, (3S)—N-(2-((3-fluoro-4-(trimethylsilyl)phenyl)amino)-1-(1-methyl-1H-indazol-5-yl)-2-oxoethyl)-5-oxopyrrolidine-3-carboxamide], the inhibition at 1 µM is 100% in assay [2] and 87.6% in assay [3]. Further, the inhibition at 3 µM in assay [4] (Jurkat) stood at 100%.

Values taken from patent publication US11851449B2, “Heterocyclic amide compounds having an RORvt inhibitory action” (TAKEDA PHARMACEUTICAL COMPANY LIMITED, priority 2013, dated 2023).
